Measured values: PubChem BioAssay (NCI)
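Method: 48-hour compound exposure of cells in 96-well plates, five concentrations, linear interpolation of endpoints. TGI: concentration producing complete growth inhibition.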 Where a SMILES comes first, the peptide text is derived from it. [ ]: non-standard residue; d: D form. The star is where a group is joined. Phe(4-NO2) = N[CH](Cc1ccc([N+](=O)[O-])cc1)C(=O)O; Boc = CC(C)(C)OC(=O)*

Columns and labels:
Experiment in all cases: growth of human tumour cells (NCI), 48 h
[1] = test system: SNB-75 CNS
[2] = test system: 786-0 renal
[3] = test system: RPMI-8226 leukemia
[4] = test system: MALME-3M melanoma
[5] = test system: MDA-MB-435
[6] = test system: ACHN renal
[7] = test system: MDA-MB-231 breast
[8] = test system: OVCAR-3 ovarian
[9] = test system: OVCAR-5 ovarian
[10] = test system: SN12C renal
[11] = test system: T-47D breast

Structure (SMILES) | TGI [1] | TGI [2] | TGI [3] | TGI [4] | TGI [5] | TGI [6] | TGI [7] | TGI [8] | TGI [9] | TGI [10] | TGI [11]
CC(C)(C)c1cc(O)ccc1O | 25.2 µM | > 67 µM | > 93.7 µM | > 27.6 µM | > 71.2 µM | > 100 µM | 4.97 µM | > 70 µM | > 100 µM | > 100 µM | 41.9 µM
O=C1C(c2c(O)[nH]c3ccc(Br)cc23)=Nc2ccccc21 | 28.4 µM | 5.75 µM | > 100 µM | 44.4 µM | 40.1 µM | 12.2 µM | 37.2 µM | 45.8 µM | 26 µM | > 100 µM | 64.2 µM
OCCNCNc1nc(NCNCCO)nc(N(CNCCO)CNCCO)n1 | 50.6 µM | 36.5 µM | > 68.2 µM | 33.2 µM | 35.8 µM | > 68.9 µM | 52.7 µM | 58.7 µM | 21 µM | 60.8 µM | 61.1 µM
CC(C)NC(=O)CN1CCN(c2c(O)c3c(c(O)c2Cl)C(=O)C=CC3=O)CC1 | 11.3 µM | 6.14 µM | 7.27 µM | 2.7 µM | 3.38 µM | 4.9 µM | 4.26 µM | 2.97 µM | 6.54 µM | 3.28 µM | 3.67 µM
Cc1ccc2c(c1)-c1nc(N)c(C#N)c(-c3ccccc3)c1CCS2(=O)=O | 81.8 µM | 44.1 µM | > 100 µM | 87.3 µM | > 100 µM | > 100 µM | > 100 µM | > 100 µM | > 100 µM | > 100 µM | > 100 µM
CC(=O)OCC1OC(n2c(-c3ccc(C)cc3)cc(-c3ccccc3)c(C#N)c2=S)C(OC(C)=O)C(OC(C)=O)C1OC(C)=O (stereo not drawn) | > 100 µM | > 100 µM | > 100 µM | > 100 µM | > 100 µM | > 100 µM | > 100 µM | > 100 µM | > 100 µM | > 100 µM | > 100 µM
CNC(=O)CCC(NC(=O)OC(C)(C)C)C(=O)NC(Cc1ccc([N+](=O)[O-])cc1)C(=O)NCC(=O)NC (stereo not drawn) (Boc-Glu(NHMe)-[Phe(4-NO2)]-Gly-NHMe; configuration not given here) | > 100 µM | > 100 µM | > 100 µM | > 100 µM | > 100 µM | > 100 µM | > 100 µM | > 100 µM | > 100 µM | > 100 µM | > 100 µM
Cc1cc(=O)oc2c(CNC(Cc3ccccc3)C(=O)O)c(O)ccc12 (stereo not drawn) | > 100 µM | > 100 µM | > 100 µM | > 100 µM | > 100 µM | > 100 µM | > 100 µM | > 100 µM | > 100 µM | > 100 µM | > 100 µM
N#C/C(N)=C(\C#N)NC(=O)C(=O)N/C(C#N)=C(\N)C#N | > 100 µM | > 100 µM | > 100 µM | > 100 µM | > 100 µM | > 100 µM | > 100 µM | > 100 µM | > 100 µM | > 100 µM | > 100 µM
N[C@H]1CCCC[C@@H]1N1C(=O)c2ccccc2C1(O)c1ccc(Cl)cc1 (stereo partly drawn) | 7.98 µM | 26.4 µM | 13.6 µM | 27.8 µM | 21.1 µM | 27 µM | 27.5 µM | 21.5 µM | 28.6 µM | 27 µM | 14.7 µM
Cc1ccnc(NC(NC(=O)c2ccccc2)(C(F)(F)F)C(F)(F)F)c1 | > 100 µM | > 100 µM | > 100 µM | > 100 µM | > 100 µM | > 100 µM | > 100 µM | > 100 µM | > 100 µM | > 100 µM | > 100 µM
CCOC(=O)CCC(NC(=O)c1ccc(OCc2ccc3nc(-c4ccccc4)c(Cl)nc3c2)cc1)C(=O)OCC (stereo not drawn) | 30.3 µM | > 31.6 µM | > 31.6 µM | > 100 µM | > 31.6 µM | > 31.6 µM | > 67.9 µM | > 31.6 µM | > 31.6 µM | > 100 µM | > 31.6 µM
O=C(NCCCCCCNC(=O)c1cc(-c2ccccc2)nc2ccccc12)c1cc(-c2ccccc2)nc2ccccc12 | > 100 µM | > 100 µM | > 100 µM | > 100 µM | > 100 µM | > 100 µM | > 100 µM | > 100 µM | > 100 µM | > 100 µM | > 100 µM
CCCCCCCCCCCCCCCCCCN(C)CC(COP(=O)([O-])OCC[N+](C)(C)C)OC (stereo not drawn) | 15.6 µM | 14.7 µM | 18.6 µM | 43.3 µM | 97 µM | 48.8 µM | > 100 µM | 51.6 µM | 11.1 µM | > 50.6 µM | > 100 µM
O=[N+]([O-])c1cc(-c2nc(-c3ccccc3)c(-c3ccccc3)[nH]2)c(O)c([N+](=O)[O-])c1 | 60 µM | 48.6 µM | 75.1 µM | 52 µM | 95.3 µM | 46.7 µM | 49.9 µM | > 100 µM | 50.3 µM | 77.4 µM | 68.3 µM
COc1ccc(C(=O)/C=C/c2cc(O)c(O)c(F)c2F)c(OC)c1 | 79.5 µM | 41.9 µM | 40.8 µM | 31.3 µM | 82.9 µM | > 100 µM | 58.2 µM | 85.5 µM | 95.7 µM | 32.2 µM | > 100 µM
COc1cc(CNNC(N)=S)cc(OC)c1OC | > 100 µM | > 100 µM | > 100 µM | > 100 µM | > 100 µM | > 100 µM | > 100 µM | > 100 µM | > 100 µM | > 100 µM | > 100 µM
O=[N+]([O-])c1ccc(N/N=C/c2ccc(OCCCCCCCCCCCO)cc2)c([N+](=O)[O-])c1 | 4.27 µM | 4 µM | > 100 µM | 4.61 µM | 11.7 µM | > 71.7 µM | > 94.7 µM | > 100 µM | > 56.1 µM | 14.3 µM | > 100 µM
